Values after ≈ are worked out from the molar mass of the structure shown. “Also recorded” adds a separate entry of the source. Read-outs that look alike come from different tables or passages of the source. One block for each compound: values may come before it.
What was measured:
Type in all cases: physicochemical
[1] = Solubility assessment of Form I, gravimetric, slurried 48 h in solvents/solvent mixtures; details: thermodynamic from solid
Description: The Solubility of Form I was measured gravimetrically in 15 different solvents and solvent mixtures at 15 and 45° C. About 75 mg of the compound was dispensed in 10 volumes (750 μL) of the solvent/solvent mixture and slurried for 48 h.
The vials were centrifuged. The supernatant was collected and left for slow evaporation under vacuum at 45° C. The solids obtained after evaporation were used to determine the solubility of Form I and analyzed by XRPD for any new forms.

[2] = Dynamic vapor sorption (DVS) with post-DVS XRPD; details: for Post DVS XRPD (crystalline form after DVS): XRPD of the post-DVS sample
Description: Samples were analyzed using an Aquadyne DVS-2 gravimetric water sorption analyzer. The relative humidity was adjusted between 2-95% and the weight of the sample was continuously monitored and recorded with respect to the relative humidity and time.
The material was subjected under Dynamic Vapor Sorption (DVS, FIG. 6).

[3] = Stability of crystalline forms under dry (vacuum, 45° C.) and humid (RH >95%) conditions, XRPD; details: for XRPD pattern after drying at 45° C. (under vacuum): dried under vacuum at 45° C.; for Form change after exposing the dried sample to high humidity conditions (XRPD): after drying at 45° C. under vacuum, then high humidity (RH >95%)
Description: For dry conditions, the sample was dried under vacuum at 45° C. followed by XRPD analysis. Later the sample was subjected to high humidity conditions (RH >95%) followed by XRPD analysis.
The MeOH and DCM solvates of Compound (I) were dried on XRPD plates under vacuum at 45° C. and were analyzed by XRPD the following day.
Pattern E was dried at 45° C. under vacuum overnight and analyzed by XRPD. The following day, it was subjected to high humidity conditions (>95%) and later analyzed by XRPD the next day. […] FIG. 26 illustrates the XRPD comparison of dried and humid samples with Compound (I), Form I, Pattern A.

[4] = Solid form stability test (up to 7 days) under high humidity, XRPD
Description: In one aspect, provided herein is 2-((2-chlorophenyl)(phenyl)amino)-N-(7-(hydroxyamino)-7-oxoheptyl)pyrimidine-5-carboxamide of Form I (referred to herein as “Form I”). Form I (of Compound (I)) was observed under a polarized microscope and its crystalline nature was determined by using X-ray powder diffraction (XRPD) and Pattern A was assigned to it for identification (See Example 3). The chemical structure of the material was confirmed by proton-nuclear magnetic resonance (^1H-NMR) and the thermal characterization of the material was carried out by differential scanning calorimetry (DSC) and thermal gravimetric analysis (TGA) (see Examples 2 and 3). […] The XRPD analysis of this form including peak identification is found in Example 11 (See FIG. 40).

[5] = Dynamic vapor sorption (DVS) with post-DVS XRPD; details: relative humidity between 0-95%
[6] = Form change on heating or on storage at room temperature, XRPD
[7] = exposed to high humidity conditions

solubility at 48 h ([1]; aqueous with cosolvent or surfactant or cyclodextrin, EtOH:H2O (1:1), temperature not stated, read-out: Solubility (moderately soluble)): 10 to 55 mg/mL (≈ 21.4 to 118 mM)
solubility at 48 h ([1]; aqueous with cosolvent or surfactant or cyclodextrin, acetone:H2O (1:1), temperature not stated, read-out: Solubility (moderately soluble)): 10 to 55 mg/mL (≈ 21.4 to 118 mM)
solubility at 48 h ([1]; organic solvent or mixture, Acetone, 15° C., read-out: Solubility): 2 mg/mL (≈ 4.27 mM)
solubility at 48 h ([1]; organic solvent or mixture, Acetone, 45° C., read-out: Solubility): 11 mg/mL (≈ 23.5 mM)
solubility at 48 h ([1]; organic solvent or mixture, Acetone:H2O (95:5), 15° C., read-out: Solubility): 21 mg/mL (≈ 44.9 mM)
solubility at 48 h ([1]; organic solvent or mixture, Acetone:H2O (95:5), 45° C., read-out: Solubility): 48 mg/mL (≈ 103 mM)
solubility at 48 h ([1]; organic solvent or mixture, Acetonitrile (ACN), 15° C., read-out: Solubility): < 1 mg/mL
solubility at 48 h ([1]; organic solvent or mixture, Acetonitrile (ACN), 45° C., read-out: Solubility): 1 mg/mL (≈ 2.14 mM)
solubility at 48 h ([1]; organic solvent or mixture, DCM, temperature not stated, read-out: Solubility (less soluble)): < 1 mg/mL
solubility at 48 h ([1]; organic solvent or mixture, DMA, temperature not stated, read-out: Solubility (freely soluble)): > 100 mg/mL
solubility at 48 h ([1]; organic solvent or mixture, Dimethylacetamide (DMA), 15° C., read-out: Solubility): > 100 mg/mL
solubility at 48 h ([1]; organic solvent or mixture, Dimethylacetamide (DMA), 45° C., read-out: Solubility): > 100 mg/mL
solubility at 48 h ([1]; organic solvent or mixture, EtOAc, temperature not stated, read-out: Solubility (less soluble)): < 1 mg/mL
solubility at 48 h ([1]; organic solvent or mixture, EtOH, temperature not stated, read-out: Solubility (moderately soluble)): 10 to 55 mg/mL (≈ 21.4 to 118 mM)
solubility at 48 h ([1]; organic solvent or mixture, EtOH:H2O (95:5), 15° C., read-out: Solubility): 18 mg/mL (≈ 38.5 mM)
solubility at 48 h ([1]; organic solvent or mixture, EtOH:H2O (95:5), 45° C., read-out: Solubility): 53 mg/mL (≈ 113 mM)
solubility at 48 h ([1]; organic solvent or mixture, Ethanol (EtOH), 15° C., read-out: Solubility): 11 mg/mL (≈ 23.5 mM)
solubility at 48 h ([1]; organic solvent or mixture, Ethanol (EtOH), 45° C., read-out: Solubility): 39 mg/mL (≈ 83.3 mM)
solubility at 48 h ([1]; organic solvent or mixture, Ethyl acetate (EtOAc), 15° C., read-out: Solubility): < 1 mg/mL
solubility at 48 h ([1]; organic solvent or mixture, Ethyl acetate (EtOAc), 45° C., read-out: Solubility): 1 mg/mL (≈ 2.14 mM)
solubility at 48 h ([1]; organic solvent or mixture, Heptane (HEP), 15° C., read-out: Solubility): < 1 mg/mL
solubility at 48 h ([1]; organic solvent or mixture, Heptane (HEP), 45° C., read-out: Solubility): < 1 mg/mL
solubility at 48 h ([1]; organic solvent or mixture, IPA, temperature not stated, read-out: Solubility (slightly soluble)): ~2 mg/mL (≈ 4.27 mM)
solubility at 48 h ([1]; organic solvent or mixture, Isopropanol (IPA), 15° C., read-out: Solubility): 1 mg/mL (≈ 2.14 mM)
solubility at 48 h ([1]; organic solvent or mixture, Isopropanol (IPA), 45° C., read-out: Solubility): 12 mg/mL (≈ 25.6 mM)
solubility at 48 h ([1]; organic solvent or mixture, MeOH, temperature not stated, read-out: Solubility (freely soluble)): > 100 mg/mL
solubility at 48 h ([1]; organic solvent or mixture, Methanol (MeOH), 15° C., read-out: Solubility): 11 mg/mL (≈ 23.5 mM)
solubility at 48 h ([1]; organic solvent or mixture, Methanol (MeOH), 45° C., read-out: Solubility): > 100 mg/mL
solubility at 48 h ([1]; organic solvent or mixture, TBME, temperature not stated, read-out: Solubility (less soluble)): < 1 mg/mL
solubility at 48 h ([1]; organic solvent or mixture, TFE, temperature not stated, read-out: Solubility (freely soluble)): > 100 mg/mL
solubility at 48 h ([1]; organic solvent or mixture, THF, temperature not stated, read-out: Solubility (moderately soluble)): 10 to 55 mg/mL (≈ 21.4 to 118 mM)
solubility at 48 h ([1]; organic solvent or mixture, Tert-butyl methyl ether (TBME), 15° C., read-out: Solubility): < 1 mg/mL
solubility at 48 h ([1]; organic solvent or mixture, Tert-butyl methyl ether (TBME), 45° C., read-out: Solubility): 2 mg/mL (≈ 4.27 mM)
solubility at 48 h ([1]; organic solvent or mixture, Tetrahydrofuran (THF), 15° C., read-out: Solubility): 13 mg/mL (≈ 27.8 mM)
solubility at 48 h ([1]; organic solvent or mixture, Tetrahydrofuran (THF), 45° C., read-out: Solubility): 50 mg/mL (≈ 107 mM)
solubility at 48 h ([1]; organic solvent or mixture, acetone, temperature not stated, read-out: Solubility (slightly soluble)): ~2 mg/mL (≈ 4.27 mM)
solubility at 48 h ([1]; organic solvent or mixture, acetonitrile, temperature not stated, read-out: Solubility (less soluble)): < 1 mg/mL
solubility at 48 h ([1]; organic solvent or mixture, heptane, temperature not stated, read-out: Solubility (less soluble)): < 1 mg/mL
solubility at 48 h ([1]; Water (H2O), 15° C., read-out: Solubility): < 1 mg/mL
solubility at 48 h ([1]; Water (H2O), 45° C., read-out: Solubility): < 1 mg/mL
solubility at 48 h ([1]; water, temperature not stated, read-out: Solubility (less soluble)): < 1 mg/mL
solubility at 48 h ([1]; trifluoroethanol (TFE), organic solvent or mixture, Trifluoro Ethanol (TFE), 15° C., read-out: Solubility): > 100 mg/mL
solubility at 48 h ([1]; trifluoroethanol (TFE), organic solvent or mixture, Trifluoro Ethanol (TFE), 45° C., read-out: Solubility): > 100 mg/mL
Hygroscopicity [2]: low hygroscopicity
XRPD pattern after drying at 45° C. (under vacuum) [3]: Pattern A,
Moisture uptake (DVS) [5]: less than 0.2%
Structure (SMILES): O=C(CCCCCCNC(=O)c1cnc(N(c2ccccc2)c2ccccc2Cl)nc1)NO [Form I, 2-((2-chlorophenyl)(phenyl)amino)-N-(7-(hydroxyamino)-7-oxoheptyl)pyrimidine-5-carboxamide]
Post DVS XRPD (crystalline form after DVS) [2]: no change in the crystalline form; also recorded: Pattern A,
Solid form stability under high humidity (XRPD) [4]: stability of Form I up to seven days; also recorded: stable under high humidity up to a week

Post DVS XRPD (crystalline form after DVS) [2]: Pattern D,
Post DVS XRPD (crystalline form after DVS) ([2]; listed as Pattern B): Pattern D
Weight change (DVS) [2, 7]: < 1%
XRPD pattern after drying at 45° C. (under vacuum) [3]: Pattern D,
XRPD pattern after drying at 45° C. (under vacuum) ([3]; listed as Pattern B): Pattern D
XRPD pattern after heating ([6]; 130° C. for 30 minutes): Pattern A
Structure (SMILES): O=C(CCCCCCNC(=O)c1cnc(N(c2ccccc2)c2ccccc2Cl)nc1)NO [Form II, 2-((2-chlorophenyl)(phenyl)amino)-N-(7-(hydroxyamino)-7-oxoheptyl)pyrimidine-5-carboxamide]

Post DVS XRPD (crystalline form after DVS) [2]: Pattern D,
Post DVS XRPD (crystalline form after DVS) ([2]; listed as Pattern C): Pattern D
Weight change (DVS) [2, 7]: around 1.5%
XRPD pattern after drying at 45° C. (under vacuum) [3]: Pattern D,
XRPD pattern after drying at 45° C. (under vacuum) ([3]; listed as Pattern C): Pattern D
Structure (SMILES): O=C(CCCCCCNC(=O)c1cnc(N(c2ccccc2)c2ccccc2Cl)nc1)NO [Form III, 2-((2-chlorophenyl)(phenyl)amino)-N-(7-(hydroxyamino)-7-oxoheptyl)pyrimidine-5-carboxamide]

Post DVS XRPD (crystalline form after DVS) [2]: Pattern D,
Post DVS XRPD (crystalline form after DVS) ([2]; listed as Pattern I): Pattern D
XRPD pattern after drying at 45° C. (under vacuum) [3]: Pattern D (Form IV)
XRPD pattern after drying at 45° C. (under vacuum) ([3]; listed as Pattern I): Pattern D
Structure (SMILES): O=C(CCCCCCNC(=O)c1cnc(N(c2ccccc2)c2ccccc2Cl)nc1)NO [Form IX, 2-((2-chlorophenyl)(phenyl)amino)-N-(7-(hydroxyamino)-7-oxoheptyl)pyrimidine-5-carboxamide]

Post DVS XRPD (crystalline form after DVS) [2]: Pattern F, Form VI
Post DVS XRPD (crystalline form after DVS) ([2]; listed as Pattern E): Pattern F
Moisture uptake (DVS) [2, 7]: < 0.15%
Form change after exposing the dried sample to high humidity conditions (XRPD) [3]: no further form change
XRPD pattern after drying at 45° C. (under vacuum) [3]: Form VI, Pattern F
XRPD pattern after drying at 45° C. (under vacuum) ([3]; listed as Pattern E): Pattern F (Form VI)
Structure (SMILES): O=C(CCCCCCNC(=O)c1cnc(N(c2ccccc2)c2ccccc2Cl)nc1)NO [Form V, 2-((2-chlorophenyl)(phenyl)amino)-N-(7-(hydroxyamino)-7-oxoheptyl)pyrimidine-5-carboxamide]

Post DVS XRPD (crystalline form after DVS) [2]: Pattern H,
Post DVS XRPD (crystalline form after DVS) ([2]; listed as Pattern G): Pattern H
Form change after exposing the dried sample to high humidity conditions (XRPD) [3]: no further form change
XRPD pattern after drying at 45° C. (under vacuum) [3]: Form VIII (Pattern H)
XRPD pattern after drying at 45° C. (under vacuum) ([3]; listed as Pattern G): Pattern H
Structure (SMILES): O=C(CCCCCCNC(=O)c1cnc(N(c2ccccc2)c2ccccc2Cl)nc1)NO [Form VII, 2-((2-chlorophenyl)(phenyl)amino)-N-(7-(hydroxyamino)-7-oxoheptyl)pyrimidine-5-carboxamide]

XRPD pattern after drying at 45° C. (under vacuum) [3]: Pattern A
XRPD pattern after storage ([6]; room temperature, reanalyzed after three days): Pattern A
Structure (SMILES): O=C(CCCCCCNC(=O)c1cnc(N(c2ccccc2)c2ccccc2Cl)nc1)NO [Pattern J]
